Laboratory results published in paper PMC9884089 (Journal of Medicinal Chemistry, 2023).

Tests used:
[1] = target: T1, TNKS1 (Homo sapiens, UniProt O95271); assay: PARP profiling activity assay, TNKS1; format: biochemical
T1 sequence (O95271 1-1327): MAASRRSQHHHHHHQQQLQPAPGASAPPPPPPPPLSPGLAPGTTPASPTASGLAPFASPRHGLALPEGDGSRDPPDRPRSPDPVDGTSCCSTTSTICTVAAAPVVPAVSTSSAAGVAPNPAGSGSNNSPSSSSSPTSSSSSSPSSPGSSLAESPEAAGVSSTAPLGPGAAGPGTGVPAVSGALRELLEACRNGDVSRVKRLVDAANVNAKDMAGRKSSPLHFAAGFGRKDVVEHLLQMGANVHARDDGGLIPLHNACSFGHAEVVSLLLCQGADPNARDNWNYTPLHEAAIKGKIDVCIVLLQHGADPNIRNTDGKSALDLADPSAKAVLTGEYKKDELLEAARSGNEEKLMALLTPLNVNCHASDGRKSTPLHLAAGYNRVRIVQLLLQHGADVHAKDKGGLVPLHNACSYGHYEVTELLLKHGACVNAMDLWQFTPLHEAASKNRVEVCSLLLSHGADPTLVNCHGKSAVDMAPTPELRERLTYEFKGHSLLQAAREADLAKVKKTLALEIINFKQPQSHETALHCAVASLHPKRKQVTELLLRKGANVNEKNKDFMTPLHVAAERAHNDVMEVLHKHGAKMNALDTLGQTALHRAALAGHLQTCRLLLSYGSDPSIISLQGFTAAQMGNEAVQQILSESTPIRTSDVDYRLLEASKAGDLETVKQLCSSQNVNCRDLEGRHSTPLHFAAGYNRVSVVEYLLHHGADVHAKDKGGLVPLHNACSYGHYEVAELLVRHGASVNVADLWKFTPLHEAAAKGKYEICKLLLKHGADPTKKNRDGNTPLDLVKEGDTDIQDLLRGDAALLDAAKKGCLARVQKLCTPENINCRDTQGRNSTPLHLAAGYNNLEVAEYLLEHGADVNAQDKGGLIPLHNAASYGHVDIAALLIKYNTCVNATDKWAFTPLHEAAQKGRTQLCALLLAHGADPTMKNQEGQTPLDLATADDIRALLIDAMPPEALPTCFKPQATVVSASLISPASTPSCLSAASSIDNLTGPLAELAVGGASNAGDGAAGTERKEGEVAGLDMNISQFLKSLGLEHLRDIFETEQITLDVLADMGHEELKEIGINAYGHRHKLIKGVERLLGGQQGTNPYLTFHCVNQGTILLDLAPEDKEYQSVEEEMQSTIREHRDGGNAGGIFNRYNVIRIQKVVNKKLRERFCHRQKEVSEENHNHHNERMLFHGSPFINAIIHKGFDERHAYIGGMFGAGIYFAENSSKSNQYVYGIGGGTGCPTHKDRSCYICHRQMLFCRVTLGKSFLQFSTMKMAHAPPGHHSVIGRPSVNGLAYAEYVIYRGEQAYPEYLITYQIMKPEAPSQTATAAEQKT
Method: Inhibition experiments were performed using a homogenous assay measuring NAD+ consumption.[80]−[82] Reactions were carried out in quadruplicate, and IC50 curves were fitted using sigmoidal dose response curve (four variables) in GraphPad Prism version 8.02.

[2] = target: T2, PARP2 (Homo sapiens, UniProt Q9UGN5); assay: biochemical; format: biochemical; conditions: > = less than 50% inhibition at highest concentration; ≫ = no inhibition; read-out: PARP2 IC50
T2 construct: made in house
T2 sequence (Q9UGN5 whole entry): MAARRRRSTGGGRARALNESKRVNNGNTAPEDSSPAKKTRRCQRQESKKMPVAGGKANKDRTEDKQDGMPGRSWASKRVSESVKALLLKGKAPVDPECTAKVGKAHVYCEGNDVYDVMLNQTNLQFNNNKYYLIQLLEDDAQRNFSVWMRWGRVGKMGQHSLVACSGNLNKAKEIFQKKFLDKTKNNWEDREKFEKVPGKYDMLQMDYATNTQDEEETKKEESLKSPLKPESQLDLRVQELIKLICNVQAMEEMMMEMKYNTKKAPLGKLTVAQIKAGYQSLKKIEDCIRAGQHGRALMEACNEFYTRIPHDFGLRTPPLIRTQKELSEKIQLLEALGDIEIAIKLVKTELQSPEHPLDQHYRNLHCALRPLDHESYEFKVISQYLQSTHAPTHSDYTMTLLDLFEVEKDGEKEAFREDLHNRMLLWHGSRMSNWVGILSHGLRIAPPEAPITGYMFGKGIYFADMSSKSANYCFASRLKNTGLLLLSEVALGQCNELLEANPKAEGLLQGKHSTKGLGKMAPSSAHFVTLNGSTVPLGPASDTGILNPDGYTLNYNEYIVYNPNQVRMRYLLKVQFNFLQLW
Method: Inhibition experiments were performed using a homogenous assay measuring NAD+ consumption.[80]−[82] Reactions were carried out in quadruplicate, and IC50 curves were fitted using sigmoidal dose response curve (four variables) in GraphPad Prism version 8.02. […] Assay conditions for PARP2, TNKS2, PARP10, and PARP15 (Tables 1–3) were recently reported.[44] The conditions for the proximity-enhanced mono-ART assays (Table 4) were also reported recently.[47] PARP6 (400 nM) inhibition was measured using the standard buffer (50 mM sodium phosphate pH 7.0) for the enhanced activity assay using 500 nM NAD^+ and 18 h incubation in r.t..

Structure (SMILES) | IC50 [1] | IC50 [2]
Cc1ccc2c(c1)sc1nnc(N)n12 [Compound 21, 7-Methyl[1,2,4]triazolo[3,4-b][1,3]benzothiazol-3-amine] | 2.1 µM | –
COc1ccc(OC)c2c1sc1nnc(N)n12 [Compound 27, 5,8-Dimethoxy[1,2,4]triazolo[3,4-b][1,3]benzothiazol-3-amine] | 5.4 µM | 10 µM
